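Interpolation was linear, between the two tested concentrations surrounding the appropriate level; five concentrations were tested over 48 hours in 96-well plates. TGI marks complete inhibition of growth.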 Where only a bound is given, the exact number is not on record here.

The first test relates to COLO 205 colon. Description: NCI anticancer screen, dose series, 48 h.
`CC1(C)OC(=O)C(C#N)=C1/C=C/c1coc2ccc(Cl)cc2c1=O` had a TGI of over 100 µM.

The subject of the next test is SR leukemia. The experiment in a line: NCI anticancer screen, dose series, 48 h.
For the compound `COc1cccc(NC(=O)CSc2nnc(-c3ccc(NC(C)=O)cc3)o2)c1`, the TGI was over 100 µM.
`Clc1ccc(Nc2nc3ccccc3nc2-c2cccs2)cc1Cl` returned a TGI of over 100 µM.
In turn, `O=c1nc(NC2CCCCO2)ccn1CCO` (configuration not stated) had a TGI of over 100 µM.
In turn, `COC(=O)c1onc(-c2c(OC)cc(OC)cc2OC)c1C(=O)OC` came in with a TGI of over 100 µM.
On the same count and under the same terms, next, `CCCP1(=O)C=C(C)C(=C(Cl)Cl)C(C)=C1` (configuration not stated): 77.4 µM.
For `COc1cc(C2SCC(=O)N2c2cccc(Cl)c2)cc(OC)c1OC` (configuration not stated), the TGI is over 100 µM.
For the compound `NC(N)=NCCCC(NC(=O)c1cccc2c(=O)c3ccccc3[nH]c12)C(=O)O` (configuration not stated), the TGI is over 100 µM.
`COc1cccc(OC)c1C(=O)OCc1ccccc1` came in with a TGI of over 100 µM.
Compound `O=C1OC(Cc2ccccc2)(N2CCCC2=O)C1c1ccccc1` (configuration not stated) displayed a TGI of over 100 µM.
`CC1(C)OC(=O)C(C#N)=C1/C=C/c1coc2ccc(Cl)cc2c1=O` showed a TGI of over 100 µM.

A further test deals with M14 melanoma. The experiment in a line: NCI anticancer screen, dose series, 48 h.
For `COc1cccc(NC(=O)CSc2nnc(-c3ccc(NC(C)=O)cc3)o2)c1`, the TGI is over 100 µM.
`CCn1c2ccccc2c2ccc3c(c21)C(=O)C=CC3=O` gave a TGI of 14.9 µM.
As for `O=c1nc(NC2CCCCO2)ccn1CCO` (configuration not stated), the TGI is over 100 µM.
On the same count and under the same terms, next, `COC(=O)c1onc(-c2c(OC)cc(OC)cc2OC)c1C(=O)OC`: over 100 µM.
`CCCP1(=O)C=C(C)C(=C(Cl)Cl)C(C)=C1` (configuration not stated) showed a TGI of over 100 µM.
On to `COc1cc(C2SCC(=O)N2c2cccc(Cl)c2)cc(OC)c1OC` (configuration not stated), for which the TGI is over 100 µM.
Regarding `COC1/C=C/C(C)C(C(C)C(OC)C(C)CCC(=O)C(C)C(C/C=C/N(C)C=O)OC)OC(=O)C=CC2OC2(C)CC(OC)C(OC)C2=CC(=O)O[C@@H](C(C)C(OC)CC(OC)/C=C/C(C)C(O)C1)[C@H]2O` (some centres not stated), the TGI amounted to 0.00985 µM.
In turn, `CCCCCCCOc1ccc(/C=C\c2cc[n+](CCCCCCCC[n+]3ccc(/C=C\c4ccc(OCCCCCCC)cc4)cc3)cc2)cc1` showed a TGI of 34.5 µM.
As to `NC(N)=NCCCC(NC(=O)c1cccc2c(=O)c3ccccc3[nH]c12)C(=O)O` (configuration not stated), the TGI is over 100 µM.
The same measure, in the same setting: next, `c1ccc2c(c1)C1CCCCCC21N1CCOCC1` (configuration not stated): over 100 µM.
Compound `COc1cccc(OC)c1C(=O)OCc1ccccc1` came in with a TGI of over 100 µM.
Compound `O=C(CSc1nnc(Cc2ccccc2)o1)Nc1ccccc1` registered a TGI of over 100 µM.
Consider `CC(=O)C1C(=O)C(=O)N(c2cccc([N+](=O)[O-])c2)C1=O` (configuration not stated), for which the TGI was over 100 µM.
For `Cc1ccc(/C=C/C(=O)C(C)(C)CN2CCCCC2)cc1`, the TGI is 20.2 µM.
With `O=C1OC(Cc2ccccc2)(N2CCCC2=O)C1c1ccccc1` (configuration not stated), the TGI is over 100 µM.
Regarding `CC(=O)C(CN(CC(C)C)CC(C)C)C(c1ccccc1)c1c(O)c2ccccc2oc1=O` (configuration not stated), the TGI was over 100 µM.
On to `CC1(C)OC(=O)C(C#N)=C1/C=C/c1coc2ccc(Cl)cc2c1=O`, for which the TGI is over 100 µM.

A further test relates to 786-0 renal. The experiment in a line: NCI anticancer screen, dose series, 48 h.
`COc1cccc(NC(=O)CSc2nnc(-c3ccc(NC(C)=O)cc3)o2)c1` registered a TGI of over 100 µM.
Consider `Clc1ccc(Nc2nc3ccccc3nc2-c2cccs2)cc1Cl`, for which the TGI is over 100 µM.
Consider `CCn1c2ccccc2c2ccc3c(c21)C(=O)C=CC3=O`, for which the TGI came out at 3.3 µM.
`O=c1nc(NC2CCCCO2)ccn1CCO` (configuration not stated) registered a TGI of over 100 µM.
The compound `COC(=O)c1onc(-c2c(OC)cc(OC)cc2OC)c1C(=O)OC` came in with a TGI of over 100 µM.
In the case of `CCCP1(=O)C=C(C)C(=C(Cl)Cl)C(C)=C1` (configuration not stated), the TGI was over 100 µM.
For the compound `COc1cc(C2SCC(=O)N2c2cccc(Cl)c2)cc(OC)c1OC` (configuration not stated), the TGI is over 100 µM.
`COC1/C=C/C(C)C(C(C)C(OC)C(C)CCC(=O)C(C)C(C/C=C/N(C)C=O)OC)OC(=O)C=CC2OC2(C)CC(OC)C(OC)C2=CC(=O)O[C@@H](C(C)C(OC)CC(OC)/C=C/C(C)C(O)C1)[C@H]2O` (some centres not stated) displayed a TGI of 0.0176 µM.
`CCCCCCCOc1ccc(/C=C\c2cc[n+](CCCCCCCC[n+]3ccc(/C=C\c4ccc(OCCCCCCC)cc4)cc3)cc2)cc1` registered a TGI of 32 µM.
`NC(N)=NCCCC(NC(=O)c1cccc2c(=O)c3ccccc3[nH]c12)C(=O)O` (configuration not stated): the TGI was over 100 µM.
The same measure, in the same setting: for `c1ccc2c(c1)C1CCCCCC21N1CCOCC1` (configuration not stated) the value was over 100 µM.
Take `COc1cccc(OC)c1C(=O)OCc1ccccc1`: the TGI is over 100 µM.
The same measure, in the same setting: for `O=C(CSc1nnc(Cc2ccccc2)o1)Nc1ccccc1` the value was over 100 µM; for `CC(=O)C1C(=O)C(=O)N(c2cccc([N+](=O)[O-])c2)C1=O` (configuration not stated), over 100 µM.
`Cc1ccc(/C=C/C(=O)C(C)(C)CN2CCCCC2)cc1` yielded a TGI of 18.9 µM.
`O=C1OC(Cc2ccccc2)(N2CCCC2=O)C1c1ccccc1` (configuration not stated): the TGI is over 100 µM.
For the compound `CC(=O)C(CN(CC(C)C)CC(C)C)C(c1ccccc1)c1c(O)c2ccccc2oc1=O` (configuration not stated), the TGI is over 100 µM.
For the compound `CC1(C)OC(=O)C(C#N)=C1/C=C/c1coc2ccc(Cl)cc2c1=O`, the TGI is over 100 µM.

The next test deals with SNB-75 CNS. Description: NCI anticancer screen, dose series, 48 h.
For `COc1cccc(NC(=O)CSc2nnc(-c3ccc(NC(C)=O)cc3)o2)c1`, the TGI is over 100 µM.
For `Clc1ccc(Nc2nc3ccccc3nc2-c2cccs2)cc1Cl`, the TGI is over 100 µM.
Turning to `CCn1c2ccccc2c2ccc3c(c21)C(=O)C=CC3=O`, the TGI was determined as 63.3 µM.
Regarding `O=c1nc(NC2CCCCO2)ccn1CCO` (configuration not stated), the TGI was over 100 µM.
On the same count and under the same terms, for `COC(=O)c1onc(-c2c(OC)cc(OC)cc2OC)c1C(=O)OC` the value was over 100 µM; for `CCCCCCCOc1ccc(/C=C\c2cc[n+](CCCCCCCC[n+]3ccc(/C=C\c4ccc(OCCCCCCC)cc4)cc3)cc2)cc1`, over 100 µM.
With `NC(N)=NCCCC(NC(=O)c1cccc2c(=O)c3ccccc3[nH]c12)C(=O)O` (configuration not stated), the TGI was over 100 µM.
Take `c1ccc2c(c1)C1CCCCCC21N1CCOCC1` (configuration not stated): the TGI is over 100 µM.
The compound `COc1cccc(OC)c1C(=O)OCc1ccccc1` gave a TGI of over 100 µM.
Regarding `O=C(CSc1nnc(Cc2ccccc2)o1)Nc1ccccc1`, the TGI is over 100 µM.
Compound `CC(=O)C1C(=O)C(=O)N(c2cccc([N+](=O)[O-])c2)C1=O` (configuration not stated) yielded a TGI of over 100 µM.
The compound `Cc1ccc(/C=C/C(=O)C(C)(C)CN2CCCCC2)cc1` yielded a TGI of 19.5 µM.
Consider `O=C1OC(Cc2ccccc2)(N2CCCC2=O)C1c1ccccc1` (configuration not stated), for which the TGI was over 100 µM.
`CC(=O)C(CN(CC(C)C)CC(C)C)C(c1ccccc1)c1c(O)c2ccccc2oc1=O` (configuration not stated) yielded a TGI of over 100 µM.
On the same count and under the same terms, next, `CC1(C)OC(=O)C(C#N)=C1/C=C/c1coc2ccc(Cl)cc2c1=O`: 53.5 µM.

The test system of another test is HCC-2998 colon. The experiment in a line: NCI anticancer screen, dose series, 48 h.
Compound `Clc1ccc(Nc2nc3ccccc3nc2-c2cccs2)cc1Cl` gave a TGI of over 100 µM.
Regarding `CCn1c2ccccc2c2ccc3c(c21)C(=O)C=CC3=O`, the TGI was found to be 38.5 µM.
The same measure, in the same setting: for `COC(=O)c1onc(-c2c(OC)cc(OC)cc2OC)c1C(=O)OC` the value was over 100 µM.
Compound `CCCP1(=O)C=C(C)C(=C(Cl)Cl)C(C)=C1` (configuration not stated) came in with a TGI of 92.4 µM.
The compound `COc1cc(C2SCC(=O)N2c2cccc(Cl)c2)cc(OC)c1OC` (configuration not stated) returned a TGI of over 100 µM.
The compound `COC1/C=C/C(C)C(C(C)C(OC)C(C)CCC(=O)C(C)C(C/C=C/N(C)C=O)OC)OC(=O)C=CC2OC2(C)CC(OC)C(OC)C2=CC(=O)O[C@@H](C(C)C(OC)CC(OC)/C=C/C(C)C(O)C1)[C@H]2O` (some centres not stated) showed a TGI of 0.0584 µM.

The values are drawn from PubChem BioAssay (NCI).
